Among the data in ChEMBL document CHEMBL5465560, “Selectivity Literature for EUbOPEN Chemogenomic Library” (2024) are % of control and % of inhibition values, retold here.

Test [1] deals with Casein kinase I isoform gamma-1 (Homo sapiens) (UniProt Q9HCP0). The experiment in a line: Selectivity interaction (KinomeScan (DiscoverX)) EUB0000595a CSNK1G1. Particulars: at 10 µM.
The target in test [2] is T1, Ephrin type-B receptor 6 (Homo sapiens) (UniProt O15197).
T1 sequence (whole entry): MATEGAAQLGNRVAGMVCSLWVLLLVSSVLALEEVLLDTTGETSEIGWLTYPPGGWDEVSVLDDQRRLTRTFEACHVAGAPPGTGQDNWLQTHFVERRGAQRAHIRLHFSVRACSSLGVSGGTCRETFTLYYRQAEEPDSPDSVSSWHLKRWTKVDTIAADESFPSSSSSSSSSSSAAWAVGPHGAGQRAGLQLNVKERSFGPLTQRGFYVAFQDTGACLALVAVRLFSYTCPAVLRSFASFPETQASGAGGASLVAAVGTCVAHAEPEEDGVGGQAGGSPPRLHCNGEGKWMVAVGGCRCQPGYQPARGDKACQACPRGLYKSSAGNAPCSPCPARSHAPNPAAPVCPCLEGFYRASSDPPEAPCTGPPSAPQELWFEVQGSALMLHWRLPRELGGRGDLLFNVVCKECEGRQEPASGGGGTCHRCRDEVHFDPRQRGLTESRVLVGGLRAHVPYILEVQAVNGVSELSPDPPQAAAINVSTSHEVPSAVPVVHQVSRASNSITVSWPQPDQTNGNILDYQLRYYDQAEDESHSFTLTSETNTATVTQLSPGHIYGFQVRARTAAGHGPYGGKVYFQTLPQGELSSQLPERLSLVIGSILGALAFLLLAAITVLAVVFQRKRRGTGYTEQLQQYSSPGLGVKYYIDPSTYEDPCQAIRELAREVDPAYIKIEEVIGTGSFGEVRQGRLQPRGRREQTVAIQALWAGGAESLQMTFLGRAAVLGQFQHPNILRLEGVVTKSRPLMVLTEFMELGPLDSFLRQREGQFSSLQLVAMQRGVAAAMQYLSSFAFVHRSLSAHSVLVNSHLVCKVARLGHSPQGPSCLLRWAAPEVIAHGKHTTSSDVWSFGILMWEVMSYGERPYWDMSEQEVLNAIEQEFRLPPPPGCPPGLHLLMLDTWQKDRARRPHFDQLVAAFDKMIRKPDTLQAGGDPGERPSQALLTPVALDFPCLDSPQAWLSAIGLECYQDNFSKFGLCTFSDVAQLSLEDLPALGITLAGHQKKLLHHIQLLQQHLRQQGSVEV
The experiment in a line: Selectivity interaction (KinomeScan (DiscoverX)) EUB0000666a EPHB6. The note with it: at 10 µM.

In test [3] the target is Cell division control protein 42 homolog (Homo sapiens) (UniProt P60953). Kind of test: Selectivity interaction (Kinase panel (Invitrogen)) EUB0000639a CDC42. Particulars: at 200 nM.
Chain of Cell division control protein 42 homolog (Homo sapiens) (P60953 whole entry, looked up): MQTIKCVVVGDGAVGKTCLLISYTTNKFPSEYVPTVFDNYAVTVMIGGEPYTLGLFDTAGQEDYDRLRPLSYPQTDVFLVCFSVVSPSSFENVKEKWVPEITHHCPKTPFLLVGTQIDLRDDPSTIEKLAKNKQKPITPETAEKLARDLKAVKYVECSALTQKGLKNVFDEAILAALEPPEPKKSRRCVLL
In test [4] the target is Tyrosine-protein kinase SYK (Homo sapiens, UniProt P43405). The experiment in a line: Selectivity interaction (Kinase panel (Invitrogen)) EUB0000639a SYK. Particulars: at 200 nM.
Test [5] has as its target Protein-tyrosine kinase 2-beta (Homo sapiens) (UniProt Q14289). The experiment in a line: Selectivity interaction (ProQinase) EUB0000171b PTK2B.
In test [6] the target is Proto-oncogene tyrosine-protein kinase ROS (Homo sapiens) (UniProt P08922). The experiment in a line: Selectivity interaction (ProQinase) EUB0000171b ROS1.
Chain of Proto-oncogene tyrosine-protein kinase ROS (Homo sapiens) (P08922 whole entry): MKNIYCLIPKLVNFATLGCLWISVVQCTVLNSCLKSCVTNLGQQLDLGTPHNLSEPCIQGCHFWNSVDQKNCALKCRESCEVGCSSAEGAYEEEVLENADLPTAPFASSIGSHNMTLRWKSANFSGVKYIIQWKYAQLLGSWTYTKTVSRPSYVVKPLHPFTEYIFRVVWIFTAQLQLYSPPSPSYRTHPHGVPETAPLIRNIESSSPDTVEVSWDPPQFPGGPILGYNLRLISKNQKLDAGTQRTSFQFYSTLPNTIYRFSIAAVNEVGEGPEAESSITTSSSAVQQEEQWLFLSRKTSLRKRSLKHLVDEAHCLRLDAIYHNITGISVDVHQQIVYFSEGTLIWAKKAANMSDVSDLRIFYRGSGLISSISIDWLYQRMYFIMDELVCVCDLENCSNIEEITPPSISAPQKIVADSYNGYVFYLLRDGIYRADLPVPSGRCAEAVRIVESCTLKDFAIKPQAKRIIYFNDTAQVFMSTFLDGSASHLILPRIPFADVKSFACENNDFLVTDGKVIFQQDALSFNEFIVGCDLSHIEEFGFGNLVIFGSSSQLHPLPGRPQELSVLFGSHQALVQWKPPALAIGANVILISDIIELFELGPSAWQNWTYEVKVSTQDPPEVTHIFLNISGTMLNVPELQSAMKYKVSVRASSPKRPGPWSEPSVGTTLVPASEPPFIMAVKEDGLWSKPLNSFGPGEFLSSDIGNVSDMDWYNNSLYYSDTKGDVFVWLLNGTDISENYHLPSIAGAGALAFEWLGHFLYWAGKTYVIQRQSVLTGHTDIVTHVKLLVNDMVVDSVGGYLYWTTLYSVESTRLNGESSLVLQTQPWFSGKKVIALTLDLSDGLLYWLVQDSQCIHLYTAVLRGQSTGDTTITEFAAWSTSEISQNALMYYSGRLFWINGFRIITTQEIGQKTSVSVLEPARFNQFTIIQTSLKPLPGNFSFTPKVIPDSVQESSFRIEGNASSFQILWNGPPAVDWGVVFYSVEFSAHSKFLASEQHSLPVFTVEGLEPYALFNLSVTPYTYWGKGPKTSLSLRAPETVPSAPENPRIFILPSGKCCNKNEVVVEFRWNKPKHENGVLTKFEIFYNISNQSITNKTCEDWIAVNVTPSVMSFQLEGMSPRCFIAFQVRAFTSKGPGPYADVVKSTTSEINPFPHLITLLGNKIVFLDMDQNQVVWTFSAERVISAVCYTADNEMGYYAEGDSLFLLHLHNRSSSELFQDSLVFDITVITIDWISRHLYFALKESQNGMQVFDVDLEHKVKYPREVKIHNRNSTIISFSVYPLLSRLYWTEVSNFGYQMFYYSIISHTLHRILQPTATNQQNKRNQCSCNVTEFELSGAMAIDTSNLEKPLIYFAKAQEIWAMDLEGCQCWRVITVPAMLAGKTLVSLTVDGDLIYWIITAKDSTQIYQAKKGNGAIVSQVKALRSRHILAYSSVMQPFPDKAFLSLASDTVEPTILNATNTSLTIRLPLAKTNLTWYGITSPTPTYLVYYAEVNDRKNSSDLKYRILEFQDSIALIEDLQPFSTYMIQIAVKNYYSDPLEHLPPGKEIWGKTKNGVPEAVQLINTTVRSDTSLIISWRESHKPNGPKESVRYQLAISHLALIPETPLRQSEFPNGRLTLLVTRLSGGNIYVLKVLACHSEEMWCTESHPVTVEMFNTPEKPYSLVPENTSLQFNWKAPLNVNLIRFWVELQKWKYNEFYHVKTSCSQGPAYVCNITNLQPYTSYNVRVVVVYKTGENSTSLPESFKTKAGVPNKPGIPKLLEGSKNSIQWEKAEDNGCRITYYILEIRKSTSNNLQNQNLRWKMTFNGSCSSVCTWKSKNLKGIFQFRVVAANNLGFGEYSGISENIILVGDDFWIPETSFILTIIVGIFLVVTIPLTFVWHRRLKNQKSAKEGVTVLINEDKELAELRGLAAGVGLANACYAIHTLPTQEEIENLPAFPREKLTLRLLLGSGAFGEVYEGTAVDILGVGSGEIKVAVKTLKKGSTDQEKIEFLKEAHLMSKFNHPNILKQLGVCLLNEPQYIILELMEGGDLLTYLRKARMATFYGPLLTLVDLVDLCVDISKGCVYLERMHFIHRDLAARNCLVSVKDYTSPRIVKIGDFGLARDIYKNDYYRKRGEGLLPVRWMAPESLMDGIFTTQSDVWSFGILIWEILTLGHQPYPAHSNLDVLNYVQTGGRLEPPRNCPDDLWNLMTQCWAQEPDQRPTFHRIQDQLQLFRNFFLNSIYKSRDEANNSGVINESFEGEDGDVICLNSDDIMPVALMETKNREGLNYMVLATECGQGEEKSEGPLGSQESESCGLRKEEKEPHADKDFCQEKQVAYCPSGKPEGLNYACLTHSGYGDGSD
Test [7] deals with T2, SNF-related serine/threonine-protein kinase (Homo sapiens) (UniProt Q9NRH2).
T2 sequence (whole entry): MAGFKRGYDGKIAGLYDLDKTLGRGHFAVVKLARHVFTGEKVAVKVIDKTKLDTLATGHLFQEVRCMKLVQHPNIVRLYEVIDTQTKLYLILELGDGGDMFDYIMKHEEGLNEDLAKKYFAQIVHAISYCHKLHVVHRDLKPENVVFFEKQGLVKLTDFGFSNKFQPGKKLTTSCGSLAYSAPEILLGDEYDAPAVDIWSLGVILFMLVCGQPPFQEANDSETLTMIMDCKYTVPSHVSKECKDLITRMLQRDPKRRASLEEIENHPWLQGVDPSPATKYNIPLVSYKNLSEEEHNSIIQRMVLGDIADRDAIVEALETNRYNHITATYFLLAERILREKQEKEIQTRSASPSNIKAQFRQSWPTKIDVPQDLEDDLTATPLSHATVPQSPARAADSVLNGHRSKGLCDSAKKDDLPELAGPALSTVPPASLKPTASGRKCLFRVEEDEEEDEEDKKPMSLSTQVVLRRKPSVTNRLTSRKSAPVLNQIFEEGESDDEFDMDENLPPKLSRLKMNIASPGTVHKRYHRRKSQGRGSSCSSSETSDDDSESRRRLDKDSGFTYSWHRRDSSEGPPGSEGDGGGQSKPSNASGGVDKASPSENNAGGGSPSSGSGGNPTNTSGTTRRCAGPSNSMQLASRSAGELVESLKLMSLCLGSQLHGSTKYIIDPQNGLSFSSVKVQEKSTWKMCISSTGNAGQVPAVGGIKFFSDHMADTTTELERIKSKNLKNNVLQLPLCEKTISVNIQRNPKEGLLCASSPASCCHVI
The experiment in a line: Selectivity interaction (KinomeScan (DiscoverX)) EUB0001049a SNRK. Particulars: at 1 µM.

In test [8] the target is Fibroblast growth factor receptor 4 (Homo sapiens, UniProt P22455). Kind of test: Selectivity interaction (Upstate Kinase Profiler service (Millipore)) EUB0000056c FGFR4. Particulars: at 1 µM.
Chain of Fibroblast growth factor receptor 4 (P22455 22-802 limits assumed): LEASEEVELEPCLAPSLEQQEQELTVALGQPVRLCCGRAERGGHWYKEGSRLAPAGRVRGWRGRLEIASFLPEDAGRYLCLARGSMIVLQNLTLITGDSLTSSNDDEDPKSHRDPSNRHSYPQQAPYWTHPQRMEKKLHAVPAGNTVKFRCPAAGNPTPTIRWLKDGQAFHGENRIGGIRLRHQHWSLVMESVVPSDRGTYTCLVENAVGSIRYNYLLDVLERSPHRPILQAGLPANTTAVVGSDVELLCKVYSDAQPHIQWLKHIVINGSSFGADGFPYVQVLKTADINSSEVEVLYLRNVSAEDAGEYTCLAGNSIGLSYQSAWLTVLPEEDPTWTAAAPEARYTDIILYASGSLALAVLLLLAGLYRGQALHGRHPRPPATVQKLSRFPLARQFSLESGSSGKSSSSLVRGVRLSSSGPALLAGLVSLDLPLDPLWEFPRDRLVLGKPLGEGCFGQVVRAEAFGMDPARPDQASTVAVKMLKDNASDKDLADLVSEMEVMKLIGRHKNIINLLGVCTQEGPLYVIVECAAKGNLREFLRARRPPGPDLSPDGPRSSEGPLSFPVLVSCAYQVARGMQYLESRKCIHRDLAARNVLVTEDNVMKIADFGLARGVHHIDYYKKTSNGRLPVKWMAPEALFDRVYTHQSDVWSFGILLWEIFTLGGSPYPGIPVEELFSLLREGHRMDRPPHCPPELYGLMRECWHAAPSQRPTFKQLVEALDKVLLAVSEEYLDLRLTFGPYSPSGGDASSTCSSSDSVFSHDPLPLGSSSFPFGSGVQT
Test [9] addresses Protein kinase C delta type (Homo sapiens) (UniProt Q05655). Kind of test: Selectivity interaction (KinomeScan (DiscoverX)) EUB0001079a PRKCD. The note with it: at 1 µM.

Chain of Protein-tyrosine kinase 2-beta (Homo sapiens) (Q14289 whole entry, looked up): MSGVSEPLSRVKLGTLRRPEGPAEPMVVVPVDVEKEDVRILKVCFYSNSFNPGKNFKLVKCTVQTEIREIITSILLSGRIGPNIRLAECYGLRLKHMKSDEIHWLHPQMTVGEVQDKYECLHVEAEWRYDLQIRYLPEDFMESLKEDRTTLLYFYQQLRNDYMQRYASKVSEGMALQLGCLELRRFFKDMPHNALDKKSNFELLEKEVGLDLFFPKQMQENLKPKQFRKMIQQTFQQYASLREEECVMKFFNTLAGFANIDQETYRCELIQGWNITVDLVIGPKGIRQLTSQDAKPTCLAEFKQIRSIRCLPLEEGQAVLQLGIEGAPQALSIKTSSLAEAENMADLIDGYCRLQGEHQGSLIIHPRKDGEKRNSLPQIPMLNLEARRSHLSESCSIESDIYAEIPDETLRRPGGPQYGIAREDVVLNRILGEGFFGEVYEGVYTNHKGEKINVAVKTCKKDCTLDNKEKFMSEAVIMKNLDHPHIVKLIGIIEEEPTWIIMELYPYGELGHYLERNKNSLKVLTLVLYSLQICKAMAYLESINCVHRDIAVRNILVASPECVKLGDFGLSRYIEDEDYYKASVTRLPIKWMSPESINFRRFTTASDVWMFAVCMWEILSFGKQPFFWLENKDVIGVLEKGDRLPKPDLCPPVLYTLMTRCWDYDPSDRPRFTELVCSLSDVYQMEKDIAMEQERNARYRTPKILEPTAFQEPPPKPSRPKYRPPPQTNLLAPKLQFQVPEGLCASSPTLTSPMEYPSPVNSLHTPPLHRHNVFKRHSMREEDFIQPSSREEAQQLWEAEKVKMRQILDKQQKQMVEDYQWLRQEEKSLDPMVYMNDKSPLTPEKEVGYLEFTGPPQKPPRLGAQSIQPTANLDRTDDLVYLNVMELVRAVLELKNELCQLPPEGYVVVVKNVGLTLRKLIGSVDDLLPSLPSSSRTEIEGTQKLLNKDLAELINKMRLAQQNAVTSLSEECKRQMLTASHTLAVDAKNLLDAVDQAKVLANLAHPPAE
Chain of Protein kinase C delta type (Homo sapiens) (Q05655 whole entry, looked up): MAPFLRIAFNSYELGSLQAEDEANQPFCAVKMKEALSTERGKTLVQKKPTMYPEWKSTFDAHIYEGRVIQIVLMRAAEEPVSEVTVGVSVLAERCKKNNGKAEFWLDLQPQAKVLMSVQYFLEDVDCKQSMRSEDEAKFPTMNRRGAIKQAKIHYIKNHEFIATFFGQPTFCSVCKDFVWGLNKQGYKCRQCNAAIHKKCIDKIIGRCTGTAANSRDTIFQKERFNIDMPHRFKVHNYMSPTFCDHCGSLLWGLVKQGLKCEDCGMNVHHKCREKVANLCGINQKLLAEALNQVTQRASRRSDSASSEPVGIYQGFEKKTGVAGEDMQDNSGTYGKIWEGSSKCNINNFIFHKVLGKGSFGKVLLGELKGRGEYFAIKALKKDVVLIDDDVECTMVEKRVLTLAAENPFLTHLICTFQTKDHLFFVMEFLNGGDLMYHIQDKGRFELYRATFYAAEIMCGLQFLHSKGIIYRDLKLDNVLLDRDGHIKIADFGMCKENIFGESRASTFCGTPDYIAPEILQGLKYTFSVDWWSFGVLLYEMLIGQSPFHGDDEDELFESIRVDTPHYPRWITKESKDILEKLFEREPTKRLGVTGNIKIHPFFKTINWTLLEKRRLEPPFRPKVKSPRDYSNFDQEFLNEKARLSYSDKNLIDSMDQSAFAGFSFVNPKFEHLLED

Consider `COCC(=O)NC/C=C/c1ccc2ncnc(Nc3ccc(Oc4ccc(C)nc4)c(C)c3)c2c1` [CP-724714], for which the % of control in [1] turned out to be 100%.
In turn, `O=C(NOC[C@H](O)CO)c1ccc(F)c(F)c1Nc1ccc(I)cc1F` showed a % of control in test [2] of 87%.
In the case of `CC[C@@H]1[C@H](F)C(=O)N[C@@H]1COc1nccc2cc(C(N)=O)c(OC)cc12` [ZIMLOVISERTIB], the % of inhibition came out at 10.2% in test [3] and 9.07% in test [4].
On to `C=CC(=O)Nc1cccc(C(=O)Nc2ccc(Nc3cc(-c4[nH]c(SC)nc4C)ccn3)cc2)c1`, for which the % of control was 91% in test [5] (at 1 µM), 96% in test [5] (at 5 µM), 87% in test [6] (at 1 µM) and 74% in test [6] (at 5 µM).
In test [7], `COc1cc(Nc2nc(C)cc(-c3cnn4nc(OC)ccc34)n2)cc(C(F)(F)F)c1` displayed a % of control of 100%.
Molecule `Cc1ccc(-c2ccc3c(ccc4sc5c(c43)NC[C@@H](C)NC5=O)n2)cn1` registered a % of inhibition in test [8] of 8%.
In test [9], `Nc1cnc(N2CCc3cc(S(=O)(=O)Nc4c(F)cc(Cl)cc4F)cc(N4CCCC4=O)c32)nc1` [TP-020n] yielded a % of control of 86%.
